The results in this text go back to ChEMBL document CHEMBL2146392, “Minutissamides E-L, antiproliferative cyclic lipodecapeptides from the cultured freshwater cyanobacterium cf. Anabaena sp” (Bioorg Med Chem, 2012).

Active and inactive are the calls of the source. The rule behind the calls is not given here.

One assay has as its system MDA-MB-435. Kind of assay: Antiproliferative activity against human MDA-MB-435 cells assessed as cell viability at 1 ng/ml after 96 hrs. The conditions noted are these: MDA-MB-435, 96 h, read-out: Activity. The format is functional.
A further assay has as its system Acinetobacter baumannii. The assay can be described thus: Antibacterial activity against Acinetobacter baumannii at 10 ug/ml. The format is functional, organism-based.
In another assay the test system is Escherichia coli. Kind of assay: Antibacterial activity against Escherichia coli at 10 ug/ml. The format is functional, organism-based.
A further assay deals with Staphylococcus aureus. The assay can be described thus: Antibacterial activity against Staphylococcus aureus at 10 ug/ml. It is filed as functional, organism-based.
For another assay, the system named is Enterococcus faecalis. The assay can be described thus: Antibacterial activity against Enterococcus faecalis at 10 ug/ml. It is filed as functional, organism-based.
Assay [1] deals with Mycolicibacterium smegmatis. Kind of assay: Antibacterial activity against Mycobacterium smegmatis at 10 ug/ml. The format is functional, organism-based.
In the next assay the test system is Pseudomonas aeruginosa. The assay can be described thus: Antibacterial activity against Pseudomonas aeruginosa at 10 ug/ml. It is filed as functional, organism-based.
A further assay concerns Streptococcus pneumoniae. Kind of assay: Antibacterial activity against Streptococcus pneumoniae at 10 ug/ml. The format is functional, organism-based.

Consider `CC[C@]1(O)C[C@@H]2CN(CCc3c([nH]c4ccccc34)[C@@](C(=O)OC)(c3cc4c(cc3OC)N(C)[C@H]3[C@@](O)(C(=O)OC)[C@H](OC(C)=O)[C@]5(CC)C=CCN6CC[C@]43[C@@H]65)C2)C1` [VINBLASTINE], for which the viability at 0.001 µg/mL in the assay with MDA-MB-435 came out at 49%.

Regarding `C/C=C1/NC(=O)[C@H](C(C)C)NC(=O)[C@H](O)[C@@H]([C@@H](C)CCCCCCCCCCC(=O)CCC)NC(=O)[C@@H]2CCCN2C(=O)[C@H](CC(N)=O)N(C)C(=O)[C@H]([C@@H](C)OC)NC(=O)CNC(=O)[C@H](CCC(N)=O)NC(=O)[C@H]([C@@H](C)O)NC(=O)[C@H]([C@@H](C)O)NC1=O`, the result (in the assay on Acinetobacter baumannii; with Escherichia coli; in the assay with Staphylococcus aureus; in the assay with Enterococcus faecalis; in assay [1]; in the assay with Pseudomonas aeruginosa) was inactive. For the same compound, the result in the assay on Streptococcus pneumoniae was inactive.

With `C/C=C1/NC(=O)[C@H](C(C)C)NC(=O)[C@H](O)[C@@H]([C@@H](C)CCCCCCCCCCC(=O)CCC)NC(=O)[C@@H]2CCCN2C(=O)[C@H](CC(N)=O)N(C)C(=O)[C@H]([C@@H](C)OC)NC(=O)[C@@H](C)NC(=O)[C@H](CCC(N)=O)NC(=O)[C@H]([C@@H](C)O)NC(=O)[C@H]([C@@H](C)O)NC1=O`, the result (in the assay on Acinetobacter baumannii; in the assay on Escherichia coli; in the assay with Staphylococcus aureus; in the assay on Enterococcus faecalis; in assay [1]; in the assay on Pseudomonas aeruginosa) was inactive. In addition, the outcome in the assay with Streptococcus pneumoniae was inactive.

In the case of `C/C=C1/NC(=O)[C@H](C(C)C)NC(=O)[C@H](O)[C@@H]([C@@H](C)CCCCCCCCCCC(O)CCC)NC(=O)[C@@H]2CCCN2C(=O)[C@H](CC(N)=O)N(C)C(=O)[C@H]([C@@H](C)OC)NC(=O)[C@@H](C)NC(=O)[C@H](CCC(N)=O)NC(=O)[C@H]([C@@H](C)O)NC(=O)[C@H]([C@@H](C)O)NC1=O` (stereo partly drawn), the result (with Acinetobacter baumannii; in the assay on Escherichia coli; with Staphylococcus aureus; in the assay on Enterococcus faecalis; in assay [1]; in the assay on Pseudomonas aeruginosa) was inactive. Besides, the result in the assay on Streptococcus pneumoniae was inactive.

Take `C/C=C1/NC(=O)[C@H](C(C)C)NC(=O)[C@H](O)[C@@H]([C@@H](C)CCCCCCCC(Cl)CC)NC(=O)[C@@H]2CCCN2C(=O)[C@H](CC(N)=O)N(C)C(=O)[C@H]([C@@H](C)OC)NC(=O)CNC(=O)[C@H](CCC(N)=O)NC(=O)[C@H]([C@@H](C)O)NC(=O)[C@H]([C@@H](C)O)NC1=O` (stereo partly drawn): the result (with Acinetobacter baumannii; in the assay on Escherichia coli; in the assay on Staphylococcus aureus; in the assay with Enterococcus faecalis; in assay [1]; with Pseudomonas aeruginosa) was inactive. For the same compound, in the assay with Streptococcus pneumoniae, the outcome was inactive.

On to `C/C=C1/NC(=O)[C@H](C(C)C)NC(=O)[C@H](O)[C@@H]([C@@H](C)CCCCCCCCCCC(=O)CCC)NC(=O)[C@@H]2CCCN2C(=O)[C@H](CC(N)=O)N(C)C(=O)[C@H]([C@@H](C)OC)NC(=O)[C@@H](C)NC(=O)[C@H](CCC(N)=O)NC(=O)[C@H](C(C)C)NC(=O)[C@H]([C@@H](C)O)NC1=O`, for which the result (with Acinetobacter baumannii; with Escherichia coli; in the assay with Staphylococcus aureus; with Enterococcus faecalis; in assay [1]; with Pseudomonas aeruginosa) was inactive. Further, in the assay on Streptococcus pneumoniae, the outcome was inactive.

On to `C/C=C1/NC(=O)[C@H](C(C)C)NC(=O)[C@H](O)[C@@H]([C@@H](C)CCCCCCCC(Cl)CC)NC(=O)[C@@H]2CCCN2C(=O)[C@H](CC(N)=O)N(C)C(=O)[C@H]([C@@H](C)OC)NC(=O)[C@@H](C)NC(=O)[C@H](CCC(N)=O)NC(=O)[C@H]([C@@H](C)O)NC(=O)[C@H]([C@@H](C)O)NC1=O` (stereo partly drawn), for which the result (in the assay on Acinetobacter baumannii; in the assay on Escherichia coli; with Staphylococcus aureus; with Enterococcus faecalis; in assay [1]; in the assay on Pseudomonas aeruginosa) was inactive. Moreover, the result with Streptococcus pneumoniae was inactive.
